Paper doi:10.1101/757047v1 (biorxiv, 2019)
Like-named read-outs stand apart in the source and are kept apart here.

Tests used:
[1] = target: T1, GAK (Homo sapiens, UniProt O14976); assay: biochemical
T1 sequence (O14976 12-347 limits assumed): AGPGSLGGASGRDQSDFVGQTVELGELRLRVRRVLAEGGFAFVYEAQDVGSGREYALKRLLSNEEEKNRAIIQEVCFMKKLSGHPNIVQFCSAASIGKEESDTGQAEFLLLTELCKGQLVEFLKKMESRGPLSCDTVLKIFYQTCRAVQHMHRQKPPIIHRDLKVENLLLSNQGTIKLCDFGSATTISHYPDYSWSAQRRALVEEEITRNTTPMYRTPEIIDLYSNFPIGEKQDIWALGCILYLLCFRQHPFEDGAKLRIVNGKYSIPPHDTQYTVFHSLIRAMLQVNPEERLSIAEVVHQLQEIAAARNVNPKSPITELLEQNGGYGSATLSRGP

[2] = target: T2, STK10 (Homo sapiens, UniProt O94804); assay: biochemical
T2 sequence (O94804 36-294 limits assumed): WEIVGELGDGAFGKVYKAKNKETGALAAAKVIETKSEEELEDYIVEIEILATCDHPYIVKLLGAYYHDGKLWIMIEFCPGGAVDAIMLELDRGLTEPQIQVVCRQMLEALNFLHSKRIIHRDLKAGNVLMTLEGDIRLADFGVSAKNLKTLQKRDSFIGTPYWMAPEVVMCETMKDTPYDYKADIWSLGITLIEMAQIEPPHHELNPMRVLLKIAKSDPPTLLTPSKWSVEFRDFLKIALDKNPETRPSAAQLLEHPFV

[3] = target: T3, full length GAK protein N-terminally fused with NanoLuc luciferase (Homo sapiens, UniProt O14976); assay: cell-based; parameters: species or system HEK293T
T3 sequence (O14976 2-1311): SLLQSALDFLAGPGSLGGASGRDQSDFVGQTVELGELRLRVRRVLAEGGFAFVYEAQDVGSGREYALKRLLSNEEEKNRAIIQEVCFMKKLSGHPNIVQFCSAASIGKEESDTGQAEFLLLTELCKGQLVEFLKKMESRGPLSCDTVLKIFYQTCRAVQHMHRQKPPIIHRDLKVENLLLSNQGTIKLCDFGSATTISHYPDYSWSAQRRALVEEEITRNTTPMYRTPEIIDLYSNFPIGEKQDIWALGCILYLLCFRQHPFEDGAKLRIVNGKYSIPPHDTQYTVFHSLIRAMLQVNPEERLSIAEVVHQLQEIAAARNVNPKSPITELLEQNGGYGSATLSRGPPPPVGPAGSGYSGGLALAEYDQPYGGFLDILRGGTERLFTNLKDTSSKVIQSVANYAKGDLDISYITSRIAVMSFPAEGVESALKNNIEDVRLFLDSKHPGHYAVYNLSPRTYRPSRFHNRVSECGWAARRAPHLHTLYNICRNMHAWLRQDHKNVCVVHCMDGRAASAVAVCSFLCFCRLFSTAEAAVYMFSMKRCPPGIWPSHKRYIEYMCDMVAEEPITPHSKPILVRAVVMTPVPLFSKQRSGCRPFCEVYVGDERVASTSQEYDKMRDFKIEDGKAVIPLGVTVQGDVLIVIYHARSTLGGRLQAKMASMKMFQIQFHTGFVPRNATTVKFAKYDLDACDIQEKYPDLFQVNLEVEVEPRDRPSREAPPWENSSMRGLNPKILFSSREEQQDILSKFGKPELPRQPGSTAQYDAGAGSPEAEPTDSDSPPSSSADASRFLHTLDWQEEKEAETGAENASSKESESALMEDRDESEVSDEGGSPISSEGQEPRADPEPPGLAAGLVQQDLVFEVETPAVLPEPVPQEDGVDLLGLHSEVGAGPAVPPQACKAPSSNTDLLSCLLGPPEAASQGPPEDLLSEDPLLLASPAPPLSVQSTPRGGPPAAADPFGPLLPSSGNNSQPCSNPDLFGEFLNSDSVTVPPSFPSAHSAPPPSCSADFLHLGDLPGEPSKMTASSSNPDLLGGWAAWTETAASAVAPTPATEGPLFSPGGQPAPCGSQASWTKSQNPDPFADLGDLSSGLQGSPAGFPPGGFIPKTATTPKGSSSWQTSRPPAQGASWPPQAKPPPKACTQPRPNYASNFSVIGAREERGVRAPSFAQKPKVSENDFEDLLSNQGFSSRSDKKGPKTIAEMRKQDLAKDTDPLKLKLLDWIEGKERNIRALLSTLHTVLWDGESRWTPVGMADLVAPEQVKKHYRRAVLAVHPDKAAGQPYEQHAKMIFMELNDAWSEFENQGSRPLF

[4] = target: T4, SLK (Homo sapiens, UniProt Q9H2G2); assay: biochemical
T4 sequence (Q9H2G2 34-292): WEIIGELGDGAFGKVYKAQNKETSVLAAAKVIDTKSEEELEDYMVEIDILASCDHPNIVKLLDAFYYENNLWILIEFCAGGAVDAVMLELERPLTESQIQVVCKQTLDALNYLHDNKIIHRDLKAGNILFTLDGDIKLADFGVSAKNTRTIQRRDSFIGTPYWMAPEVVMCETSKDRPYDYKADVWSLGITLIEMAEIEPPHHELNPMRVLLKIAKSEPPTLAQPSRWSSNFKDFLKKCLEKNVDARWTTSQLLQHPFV

[5] = target: T3, full length GAK protein N-terminally fused with NanoLuc luciferase; assay: cell-based; parameters: species or system HEK293T; remark: listed apart in the source
[6] = target: T1, GAK; assay: biochemical; remark: listed apart in the source
[7] = target: T4, SLK; assay: biochemical; remark: listed apart in the source
[8] = target: T2, STK10; assay: biochemical; remark: listed apart in the source
[9] = target: T3, full length GAK protein N-terminally fused with NanoLuc luciferase; assay: cell-based; parameters: species or system HEK293T; remark: listed apart in the source
[10] = target: T1, GAK; assay: biochemical; remark: listed apart in the source
[11] = target: T4, SLK; assay: biochemical; remark: listed apart in the source
[12] = target: T4, SLK; assay: TR-FRET binding displacement assay
[13] = target: T2, STK10; assay: TR-FRET binding displacement assay
[14] = target: T4, SLK; assay: biochemical; remark: listed apart in the source
[15] = target: T1, GAK; assay: biochemical; remark: listed apart in the source
[16] = target: T3, full length GAK protein N-terminally fused with NanoLuc luciferase; assay: cell-based; parameters: species or system HEK293T; remark: listed apart in the source
[17] = target: T2, STK10; assay: biochemical; remark: listed apart in the source

| Compound | Ki [1] | Ki [2] | IC50 [3] | Ki [4] | IC50 [9] | Ki [10] | Ki [14] | IC50 [16] | Ki [17] | further results |
| --- | --- | --- | --- | --- | --- | --- | --- | --- | --- | --- |
| COc1cc(Nc2c(C#N)cnc3ccccc23)cc(OC)c1OC [compound 43, 43] | 0.0088 µM | 4.7 µM | 0.33 µM | 7.7 µM | – | – | – | – | – | – |
| COc1cc(Nc2c(C#N)cnc3ccc(Cl)cc23)cc(OC)c1OC [compound 44, 44] | 0.0038 µM | 26 µM | 0.24 µM | 53 µM | – | – | – | – | – | – |
| COc1cc(Nc2c(C#N)cnc3ccc(Br)cc23)cc(OC)c1OC [compound 45, 45] | 0.0023 µM | – | 0.2 µM | 9.4 µM | – | – | – | – | – | – |
| COc1cc(Nc2c(C#N)cnc3ccc(I)cc23)cc(OC)c1OC [compound 46, 46] | 0.0048 µM | 4.2 µM | 0.26 µM | 9.7 µM | – | – | – | – | – | – |
| COc1ccc2ncc(C#N)c(Nc3cc(OC)c(OC)c(OC)c3)c2c1 [compound 47, 47] | 0.0024 µM | 1.9 µM | 0.092 µM | 3.2 µM | – | – | – | – | – | – |
| COc1cc2ncc(C#N)c(Nc3cc(OC)c(OC)c(OC)c3)c2cc1OC [compound 48, 48] | – | – | – | – | – | – | – | – | – | Ki ([1]; read-out: GAK Ki, binder): 0.00085 µM; Ki ([2]; read-out: STK10 Ki, binder): 0.42 µM; IC50 ([3]; read-out: NanoBRET GAK IC50, binder): 0.006 µM; Ki ([4]; read-out: SLK Ki, binder): 0.57 µM |
| COc1cc(Nc2c(C#N)cnc3ccc(S(C)(=O)=O)cc23)cc(OC)c1OC [compound 49, 49] | 0.21 µM | 1.5 µM | > 5 µM | 1.2 µM | – | – | – | – | – | – |
| COc1cc(Nc2c(C#N)cnc3cc(Cl)ccc23)cc(OC)c1OC [compound 50, 50] | 0.0066 µM | 0.79 µM | 0.47 µM | 1.4 µM | – | – | – | – | – | – |
| COc1cc(Nc2c(C#N)cnc3cc(Br)ccc23)cc(OC)c1OC [compound 51, 51] | 0.0029 µM | 0.44 µM | 0.14 µM | 0.71 µM | – | – | – | – | – | – |
| COc1cc(Nc2c(C#N)cnc3cc(I)ccc23)cc(OC)c1OC [compound 52, 52] | 0.0052 µM | 0.2 µM | 0.2 µM | 0.49 µM | – | – | – | – | – | – |
| COc1ccc2c(Nc3cc(OC)c(OC)c(OC)c3)c(C#N)cnc2c1 [compound 53, 53] | 0.002 µM | 1.2 µM | 0.078 µM | 2.1 µM | – | – | – | – | – | – |
| C#Cc1cccc(Nc2ncnc3cc(C#N)ccc23)c1 [compound 67, 67] | – | – | – | – | – | – | – | – | – | IC50 [5]: > 5 µM; Ki [6]: 0.1 µM; Ki [7]: 0.26 µM |
| C#Cc1cccc(Nc2c(C#N)cnc3ccccc23)c1 [compound 75, 75] | – | – | – | – | 1.5 µM | 0.018 µM | – | – | – | Ki [8]: 0.34 µM; Ki [11]: 0.35 µM |
| C#Cc1cccc(Nc2c(C#N)cnc3ccc(F)cc23)c1 [compound 76, 76] | – | – | – | – | 3.8 µM | 0.026 µM | – | – | – | Ki [8]: 0.58 µM; Ki [11]: 0.54 µM |
| C#Cc1cccc(Nc2c(C#N)cnc3ccc(Cl)cc23)c1 [compound 77, 77] | – | – | – | – | 3.2 µM | 0.016 µM | – | – | – | Ki [8]: 0.72 µM; Ki [11]: 0.71 µM |
| C#Cc1cccc(Nc2c(C#N)cnc3ccc(Br)cc23)c1 [compound 78, 78] | – | – | – | – | 4.4 µM | 0.017 µM | – | – | – | Ki [8]: 1.1 µM; Ki [11]: 1.2 µM |
| C#Cc1cccc(Nc2c(C#N)cnc3ccc(I)cc23)c1 [compound 79, 79] | – | – | – | – | > 5 µM | 0.02 µM | – | – | – | Ki [8]: 1 µM; Ki [11]: 1.1 µM |
| C#Cc1cccc(Nc2c(C#N)cnc3ccc(S(C)(=O)=O)cc23)c1 [compound 80, 80] | – | – | – | – | > 5 µM | 0.18 µM | – | – | – | Ki [8]: 42 µM; Ki [11]: > 55 µM |
| C#Cc1cccc(Nc2c(C#N)cnc3cc(Cl)ccc23)c1 [compound 84, 84] | – | – | – | – | > 5 µM | 0.028 µM | – | – | – | Ki [8]: 0.21 µM; Ki [11]: 0.18 µM |
| C#Cc1cccc(Nc2c(C#N)cnc3cc(Br)ccc23)c1 [compound 85, 85] | – | – | – | – | > 5 µM | 0.027 µM | – | – | – | Ki [8]: 0.13 µM; Ki [11]: 0.16 µM |
| C#Cc1cccc(Nc2c(C#N)cnc3cc(I)ccc23)c1 [compound 86, 4-((3-ethynylphenyl)amino)-7-iodoquinoline-3-carbonitrile] | – | – | – | – | > 5 µM | 0.019 µM | – | – | – | Ki [12]: 0.075 µM; Ki [13]: 0.08 µM |
| Fc1cc(Nc2ccnc3ccc(Br)cc23)cc(F)c1F [compound 103, 103] | – | – | – | – | – | – | > 55 µM | 4.4 µM | > 55 µM | Ki [15]: 0.023 µM |
| Fc1ccc(Nc2ccnc3ccc(Br)cc23)cc1F [compound 104, 104] | – | – | – | – | – | – | > 55 µM | > 5 µM | > 55 µM | Ki [15]: 0.011 µM |
| Fc1cc(F)cc(Nc2ccnc3ccc(Br)cc23)c1 [compound 105, 105] | – | – | – | – | – | – | > 55 µM | > 5 µM | > 55 µM | Ki [15]: 0.012 µM |
| Fc1ccc(Nc2ccnc3ccc(Br)cc23)cc1 [compound 108, 108] | – | – | – | – | – | – | 36 µM | 0.94 µM | 21 µM | – |
| Fc1ccc(Nc2ncnc3ccc(Br)cc23)cc1 [compound 109, 109] | – | – | – | – | – | – | > 55 µM | > 5 µM | > 55 µM | Ki [15]: 0.12 µM |
| Fc1cccc(Nc2ccnc3ccc(Br)cc23)c1 [compound 110, 110] | – | – | – | – | – | – | > 55 µM | 1.9 µM | > 55 µM | Ki [15]: 0.019 µM |
| Fc1ccccc1Nc1ccnc2ccc(Br)cc12 [compound 111, 111] | – | – | – | – | – | – | > 55 µM | 2.6 µM | 30 µM | Ki [15]: 0.049 µM |
| Brc1cccc(Nc2ccnc3ccc(Br)cc23)c1 [compound 112, 112] | – | – | – | – | – | – | > 55 µM | > 5 µM | > 55 µM | Ki [15]: 0.072 µM |
| Brc1cccc(Nc2ncnc3ccc(Br)cc23)c1 [compound 113, 113] | – | – | – | – | – | – | 9.4 µM | > 5 µM | 6 µM | Ki [15]: 0.084 µM |
